Experimental data: publication PMC12596500, “Affinity-selected peptide ligands specifically bind i-motif DNA and modulate c-Myc gene expression” (Nucleic Acids Research, 2025)
Peptide text beside a SMILES is read from it.

What was measured:
c-MycC27 = experiment: CD melting of c-MycC27; format: binding; details: 10 µM DNA; for TM c-MycC27, first (lower) transition / TM c-MycC27, second (higher) transition: 10 mM NaCaco pH 6.6, 10 molar eqv. peptide, mean ± SEM (n=4); for effect on c-MycC27 thermal stability, in words: pH 6.6, 10 molar equivalents peptide
Experimental: Circular Dichroism (CD) melting experiments were performed in a Jasco J-1500 spectropolarimeter with 10 µM DNA samples in 10 mM sodium cacodylate buffer at pH 6.6 using a 1 mm path length quartz cuvette. […] The samples were kept at 5°C for 5 min before starting the melt, with a temperature increase of 1°C/min, a 0.5°C data interval, and a 60-s holding time at each target temperature. Four scans were accumulated data pitch of 0.5 nm, a scanning speed of 200 nm/min, 1 s response time, 2 nm bandwidth, and 200 mdeg sensitivity. Furthermore, two CD melting experiment repeats were performed recording C-rich c-Myc at 288 and 320 nm, G-rich c-Myc at 264 and 320 nm, and dsDNA at 253 and 320 nm with the settings as described for full spectrum measurements. Data were zero corrected to 320 nm and baseline drift. The melting temperature (TM) was concluded using the Boltzmann or biphasic fitting curve on the folded fraction data using GraphPad Prism version 10.1.2. Data were processed as mean ± SEM (n = 4) and one-way ANOVA followed by Bonferroni post-hoc test to determine significant changes between peptides and controls.

[1] = test system: c-Myc promoter (Del-4) Firefly luciferase reporter in HEK293 cells; experiment: Dual-luciferase reporter assay, c-Myc promoter; format: cell-based, human; details: HEK293, 4 h, 1, 5 or 10 µM peptide with Nanocin Pro; Firefly/Renilla normalised to 0.2% DMSO; P < 0.001
Experimental: Cell studies: HEK293 cells (ATCC CRL-1573™, passages 20–28), MCF-7 cells (ATCC HTB-22™, passages 21–28), and Panc-1 cells (ATCC CRL-1469™, passages 15–22) were cultured in Dulbecco's Modified Eagle's Medium (DMEM) medium supplemented with 10% fetal bovine serum (FBS; Gibco, UK) and maintained under standard cell culture conditions (37°C, 5% CO2). Cells were passaged every 3–4 days at ∼80% confluency. For experiments, the cells were seeded into six-well plates at a density of 1 × 10⁵ cells/well in DMEM containing 10% FBS. […] Cell proliferation was assessed at 4 and 24 h post-treatment using the CellTiter 96® Aqueous One Solution Cell Proliferation Assay (Promega, USA). For this, 20 µl of reagent was added per well, and absorbance at 490 nm was measured after 4 and 24 h using a SpectraMax iD3 plate reader (Molecular Devices, UK). Blank values (media without cells) were subtracted, and readings were normalized to DMSO-treated controls. […] Statistical significance was determined using one-way ANOVA followed by Holm–Šídák post-hoc analysis performed in GraphPad Prism version 10.1.2. […]

[2] = 10 mM sodium cacodylate pH 6.6, 10 molar equivalents peptide vs DMSO, mean ± SEM (n = 4), SEM

Compound | TM c-MycC27, first (lower) transition (c-MycC27; SEM) | TM c-MycC27, second (higher) transition (c-MycC27; SEM) | ΔTM c-MycC27, first value (transition at lower temperature) (c-MycC27; [2]) | ΔTM c-MycC27, second value (transition at higher temperature) (c-MycC27; [2]) | effect on c-MycC27 thermal stability, in words (c-MycC27) | luciferase activity (c-Myc promoter activity) vs vehicle-only control [1]
CC(=O)N1CCC[C@H]1C(=O)N[C@H](C(=O)N[C@@H](CC(N)=O)C(=O)N[C@H](C(=O)N[C@@H](CO)C(=O)NCC(=O)N[C@@H](CCCNC(=N)N)C(=O)N[C@@H](CC(N)=O)C(=O)N[C@@H](Cc1ccc(O)cc1)C(=O)N[C@@H](CC(C)C)C(=O)N[C@@H](Cc1ccccc1)C(=O)N[C@@H](CS)C(N)=O)C(C)C)[C@@H](C)O [Pep-PTN] (Ac-PTNVSGRNYLFC-NH2) | 27 ± 0.7 °C | 79 ± 0.5 °C | 0 ± 0.5; 0 ± 0.5 °C | 0 ± 0.5; 0 ± 0.5 °C | neither stabilized nor destabilized | concentration-dependent decreases in luciferase activity
CC(=O)N[C@H](C(=O)N[C@@H](CO)C(=O)N[C@@H](CCC(=O)O)C(=O)N[C@@H](C)C(=O)N[C@@H](Cc1c[nH]c2ccccc12)C(=O)N[C@@H](CCCCN)C(=O)N[C@@H](CCC(=O)O)C(=O)N[C@H](C(=O)N[C@@H](CCCCN)C(=O)NCC(=O)N[C@@H](Cc1ccccc1)C(=O)N[C@@H](Cc1ccccc1)C(N)=O)C(C)C)C(C)C [Pep-VSE] (Ac-VSEAWKEVKGFF-NH2) | 26 ± 1.0 °C | 80 ± 0.6 °C | 0 ± 0.6 °C | – | neither stabilized nor destabilized | concentration-dependent decreases in luciferase activity
